Experiment [1] deals with de novo hepatic cholesterol synthesis. Nature of the experiment: Acute rat cholesterol synthesis assay (de novo hepatic cholesterol synthesis from 14C-acetate). The conditions noted are these: female rats, oral gavage, ip or iv dosing (route not given). In kind it is in vivo. The procedure: (b) Acute rat cholesterol synthesis assay.
This is an acute in vivo test in the rat to measure de novo hepatic cholesterol synthesis from exogenously administered ^14 C-acetate.
Female rats (35-55 g) are housed in reverse lighting conditions (red light from 0200 h-1400 h) for a period of about 2 weeks prior to test. Animals are allowed free access to chow and drinking water throughout this period. At test, animals should weigh 125-150 g.
Test compounds may be administered by oral gavage, dissolved or suspended in 0.5% polysorbate, or by ip or iv dosing. Control animals receive vehicle alone. After 1 hour the rats are injected ip with 25 μCi [2-^14 C]-acetate (NEN DUPONT. specific activity, 45-60 mCi/mmol NEC-085H, or AMERSHAM specific activity, 50-60 mCi/mmol CFA 14) in a volume of 0.25 ml saline (100 μCi/ml). After a further hour, rats are terminally anaesthetised with halothane and a blood sample obtained from the abdominal vena cava.
1 ml of plasma is lyophilised and then saponified in 2 ml ethanolic KOH (1 part 33% KOH, 9 parts ethanol) at 75° C. for 2 hours. After addition of an equal quantity of water, non-saponifiable lipids are extracted with two 5 ml volumes of hexane. The hexane extracts are evaporated to dryness and the residues dissolved in ethanol to determine cholesterol specific radioactivity. EC50 values can be determined in the standard way.

Another experiment concerns the target T1, squalene synthetase (Rattus norvegicus, UniProt Q02769).
T1 construct: rat liver microsomal protein (20 μg); from tissue; host or cells: rat liver microsomes
T1 sequence (Q02769 1-416): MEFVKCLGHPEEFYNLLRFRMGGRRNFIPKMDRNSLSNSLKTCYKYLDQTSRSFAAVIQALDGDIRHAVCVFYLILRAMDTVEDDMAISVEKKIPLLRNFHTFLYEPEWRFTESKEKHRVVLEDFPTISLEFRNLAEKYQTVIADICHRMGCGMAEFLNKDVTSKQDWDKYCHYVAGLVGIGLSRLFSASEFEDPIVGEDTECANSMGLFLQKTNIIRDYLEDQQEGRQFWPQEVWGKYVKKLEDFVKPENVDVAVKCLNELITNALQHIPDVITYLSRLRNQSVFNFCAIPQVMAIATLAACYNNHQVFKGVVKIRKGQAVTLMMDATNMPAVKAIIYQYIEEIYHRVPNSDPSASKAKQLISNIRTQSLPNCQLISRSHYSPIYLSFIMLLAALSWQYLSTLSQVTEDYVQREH
Briefly: Inhibition of Squalene Synthetase (prevention of squalene formation from tritiated farnesyl pyrophosphate, rat liver microsomal protein). In kind it is biochemical. The conditions noted are these: rat liver microsomes; 1-[3H]-farnesyl pyrophosphate 20 μM; 37° C.; 15 minutes; read-out: IC50 (concentration which results in a 50% inhibition of squalene production). As to the method:
(a) Inhibition of Squalene Synthetase
In this test, the ability of a compound to prevent the formation of squalene from a radioactive substrate (tritiated farnesyl pyrophosphate) is assessed.
The test compound is incubated at a concentration of 25 micromolar in 200 μl of a buffered solution containing potassium phosphate (50 mM), MgCl2 (4.95 mM), KF (9.9 mM), NADPH (0.9 mM) and rat liver microsomal protein (20 μg). Rat liver microsomes are prepared by the method described in published European Patent Application No. 324,421 and stored in liquid nitrogen prior to assay. Assay vials are kept at 37° C. throughout the incubation.
The reaction is started with the addition of the substrate (1-[^3 H]-farnesyl pyrophosphate), final concentration 20 μM, and stopped after 15 minutes reaction time with the addition of 50 μl of 4% KOH. The reaction products are separated from unreacted substrate after application to a C-18 octadecyl 1 ccBond column (Analytichem Int product No. 617101). An aqueous fraction is eluted with 250 μl of 0.1M KOH. Squalene is then eluted with 1.0 ml 10% ethylacetate in hexane and radioactivity determined. The difference in radioactivity in the presence and absence of the test compound is used to determine the level of inhibition. […] The IC50 can then be determined from a plot of percentage inhibition against concentration of test compound.
(In general: Microsomes from liver hold many membrane-bound enzymes, among them those of drug oxidation.)

pIC50: −log10 of the molar value. Where a name gives a salt, the structure may show the parent alone.

The text below walks through data of US5691349A, “Quinclidine derivatives as squalene synthase inhibitors” (Zeneca Limited, priority 1992, dated 1997).

What is called ED50 is the midpoint of the dose-response relation. A higher ED50 goes with a need for a large dose.

Regarding `CCCCCc1ccc(C#CC2(O)CN3CCC2CC3)cc1` (centres unmarked) [Example 18, 3-[2-(4-pentylphenyl)ethynyl]-3-hydroxyquinuclidine], the 50% effective dose (ED50) in experiment [1] was approximately 21.5 mg/kg. On to `CCCCOc1ccc(CCC2CN3CCC2CC3)cc1` (centres unmarked) [Example 4, 3-[2-(4-butoxyphenyl)ethyl]-quinuclidine hydrochloride], for which the pIC50 at squalene synthetase is 7.48.
